# Data: patent US20070154444A1, “Extracts from black yeast for whitening skin” (priority 2005, published 2007)
# Tested on: UV-B induced tan of the skin
# Assay: Whitening action: fading of UV-B induced tan on the backs of volunteer panelists, Minolta Chromameter reflectance
# Assay type: in vivo, human
# Details: FIG. 5; 1% extract or 2% kojic acid in Example 4 composition; 2 mg/cm^2 once a day; nine panelists
# Experimental: A comparative study is done to determine the whitening efficacy of an Exophiala mansonii—derived enzyme extract in comparison to the efficacy of a known tyrosinase inhibitor, kojic acid. More specifically, the study was designed to study the lightening effect of these materials (reduction in tanning) using the fading of UV-B induced tan as a marker. Two samples are prepared. The first sample contains the composition described in Example 4. The second sample has the same composition as that described in Example 4 except that 2% kojic acid is substituted for the 1 % Exophiala mansonii enzyme extract. Nine volunteers participate in the study. […] Tanning is observed for six days after irradiation at which point color measurements are made using a Minolta Chromameter which measures the difference in reflectance of the skin, L. The change in the value of the difference in reflectance, ΔL*, is measured against a baseline skin color value of untreated irradiated skin measured on day 6. […] Chromameter readings are obtained on day 6, 8, 11, 13 and 15. The observed reflectance values for all the time points are recorded, and the area under the curve for each test site was calculated. The Whitening Factor is calculated as the area under the curve of the treated site subtracted from the untreated site, and is shown in FIG. 5.
smiles,measurement,value
O=c1cc(CO)occ1O [kojic acid],Whitening Factor (area under the curve of the treated site subtracted from the untreated site),1.8
